We go through 16 compounds from patent US20170355705A1 (GlaxoSmithKline Intellectual Property (No.2) Limited, priority 2014, published 2017).

Structures are written as SMILES.

This experiment concerns the target T1, SIRT1 (Homo sapiens, UniProt Q96EB6).
T1 sequence (Q96EB6 1-747): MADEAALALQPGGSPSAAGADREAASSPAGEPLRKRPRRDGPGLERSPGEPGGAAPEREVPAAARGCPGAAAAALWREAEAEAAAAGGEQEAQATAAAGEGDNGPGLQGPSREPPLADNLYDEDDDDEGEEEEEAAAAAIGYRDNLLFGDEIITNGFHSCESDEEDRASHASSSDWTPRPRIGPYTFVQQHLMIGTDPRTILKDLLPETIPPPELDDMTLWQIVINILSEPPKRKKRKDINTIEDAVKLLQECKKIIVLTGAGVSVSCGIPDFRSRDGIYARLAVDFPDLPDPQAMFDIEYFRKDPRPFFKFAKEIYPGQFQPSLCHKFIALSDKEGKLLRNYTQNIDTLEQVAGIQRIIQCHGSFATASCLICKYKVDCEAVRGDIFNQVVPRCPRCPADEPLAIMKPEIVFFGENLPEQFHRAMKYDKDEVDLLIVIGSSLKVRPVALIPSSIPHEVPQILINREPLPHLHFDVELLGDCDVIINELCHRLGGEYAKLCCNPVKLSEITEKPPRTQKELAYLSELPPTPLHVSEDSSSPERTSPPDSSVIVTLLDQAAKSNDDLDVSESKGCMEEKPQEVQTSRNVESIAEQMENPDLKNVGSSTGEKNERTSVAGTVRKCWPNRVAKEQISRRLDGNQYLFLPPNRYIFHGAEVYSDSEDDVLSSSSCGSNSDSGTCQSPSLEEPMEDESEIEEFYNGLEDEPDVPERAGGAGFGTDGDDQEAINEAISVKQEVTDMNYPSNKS
Description: Trp mass spectrometry assay of SIRT1 activity (EC1.5, percent maximum activation). In kind it is biochemical. The settings on record: Trp mass spectrometry assay; for TRP Activity (EC1.5): EC1.5 = concentration giving 150% activation of SIRT1; for TRP MAX RESP (percent maximum fold activation): percent maximum activation of SIRT1. Summed up: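 N-terminal His-tagged human SIRT1, expressed in BL21(DE3) and purified, was incubated 25 min with an acetylated Trp peptide and NAD plus test compound at varying concentrations, then quenched with formic acid. OAADPR or deacetylated peptide was quantified by mass spectrometry versus compound-free control; EC1.5 is the concentration giving 50% activity increase, with percent maximum activation.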

As for `O=C(Nc1ccnc(OC[C@H](O)CO)n1)N1c2nc(-c3cccc(C(F)(F)F)c3)ccc2N2CC[C@H]1C2` [Example 127, (4S)-N-(2-((R)-2,3-dihydroxypropoxy)pyrimidin-4-yl)-7-(3-(trifluoromethyl)phenyl)-3,4-dihydro-1,4-methanopyrido[2,3-b][1,4]diazepine-5(2H)-carboxamide], the “TRP Activity (EC1.5)” value is “A (EC1.5<1 μM)” and the “TRP MAX RESP (percent maximum fold activation)” value is “A (Fold activation ≧150%)”.

Consider `O=C(Nc1cncc(OC[C@H](O)CO)n1)N1c2nc(-c3cccc(C(F)(F)F)c3)ccc2N2CC[C@H]1C2` [Example 128, (4S)-N-(6-((R)-2,3-dihydroxypropoxy)pyrazin-2-yl)-7-(3-(trifluoromethyl)phenyl)-3,4-dihydro-1,4-methanopyrido[2,3-b][1,4]diazepine-5(2H)-carboxamide], for which the “TRP Activity (EC1.5)” value is recorded as “A (EC1.5<1 μM)” and the “TRP MAX RESP (percent maximum fold activation)” value was “A (Fold activation ≧150%)”.

Take `Cc1cc(-c2ccc3c(n2)N(C(=O)Nc2cc4cn[nH]c4cn2)[C@H]2CCN3C2)ccn1` [Example 130, (4S)-7-(2-methylpyridin-4-yl)-N-(1H-pyrazolo[3,4-c]pyridin-5-yl)-3,4-dihydro-1,4-methanopyrido[2,3-b][1,4]diazepine-5(2H)-carboxamide]: the “TRP Activity (EC1.5)” value is reported as “A (EC1.5<1 μM)” and the “TRP MAX RESP (percent maximum fold activation)” value is “A (Fold activation ≧150%)”.

As for `Cc1cc(-c2ccc3c(n2)N(C(=O)Nc2cccc4nccnc24)[C@H]2CCN3C2)ccn1` [Example 131, (4S)-7-(2-methylpyridin-4-yl)-N-(quinoxalin-5-yl)-3,4-dihydro-1,4-methanopyrido[2,3-b][1,4]diazepine-5(2H)-carboxamide], the “TRP Activity (EC1.5)” value is given as “B (EC1.5 1-25 μM)” and the “TRP MAX RESP (percent maximum fold activation)” value is recorded as “A (Fold activation ≧150%)”.

With `O=C(Nc1ccnc(OC[C@H](O)CO)c1)N1c2nc(-c3cccc(C(F)(F)F)c3)ccc2N2CC[C@H]1C2` [Example 132, (4S)-N-(2-((R)-2,3-dihydroxypropoxy)pyridin-4-yl)-7-(3-(trifluoromethyl)phenyl)-3,4-dihydro-1,4-methanopyrido[2,3-b][1,4]diazepine-5(2H)-carboxamide], the “TRP Activity (EC1.5)” value is on record as “A (EC1.5<1 μM)” and the “TRP MAX RESP (percent maximum fold activation)” value is reported as “A (Fold activation ≧150%)”.

Consider `Cc1cc(-c2ccc3c(n2)N(C(=O)Nc2ccc4[nH]ncc4n2)[C@H]2CCN3C2)ccn1` [Example 133, (4S)-7-(2-methylpyridin-4-yl)-N-(1H-pyrazolo[4,3-b]pyridin-5-yl)-3,4-dihydro-1,4-methanopyrido[2,3-b][1,4]diazepine-5(2H)-carboxamide], for which the “TRP Activity (EC1.5)” value is “A (EC1.5<1 μM)” and the “TRP MAX RESP (percent maximum fold activation)” value was “A (Fold activation ≧150%)”.

In the case of `O=C(Nc1ccnc(OC[C@@H](O)CO)n1)N1c2nc(-c3cccc(C(F)(F)F)c3)ccc2N2CC[C@H]1C2` [Example 134, (4S)-N-(2-((S)-2,3-dihydroxypropoxy)pyrimidin-4-yl)-7-(3-(trifluoromethyl)phenyl)-3,4-dihydro-1,4-methanopyrido[2,3-b][1,4]diazepine-5(2H)-carboxamide], the “TRP Activity (EC1.5)” value was “A (EC1.5<1 μM)” and the “TRP MAX RESP (percent maximum fold activation)” value was “A (Fold activation ≧150%)”.

For `Cc1cc(-c2ccc3c(n2)N(C(=O)Nc2cnccn2)[C@H]2CCN3C2)cc(C)n1` [Example 135, (4S)-7-(2,6-dimethylpyridin-4-yl)-N-(pyrazin-2-yl)-3,4-dihydro-1,4-methanopyrido[2,3-b][1,4]diazepine-5(2H)-carboxamide], the “TRP MAX RESP (percent maximum fold activation)” value is “A (Fold activation ≧150%)”.

On to `O=C(Nc1cnccn1)N1c2nc(-c3ccnc(C4CC4)c3)ccc2N2CC[C@H]1C2` [Example 136, (4S)-7-(2-cyclopropylpyridin-4-yl)-N-(pyrazin-2-yl)-3,4-dihydro-1,4-methanopyrido[2,3-b][1,4]diazepine-5(2H)-carboxamide], for which the “TRP Activity (EC1.5)” value is reported as “A (EC1.5<1 μM)” and the “TRP MAX RESP (percent maximum fold activation)” value is “A (Fold activation ≧150%)”.

On to `CC(C)c1cc(-c2ccc3c(n2)N(C(=O)Nc2cnccn2)[C@H]2CCN3C2)ccn1` [Example 137, (4S)-7-(2-isopropylpyridin-4-yl)-N-(pyrazin-2-yl)-3,4-dihydro-1,4-methanopyrido[2,3-b][1,4]diazepine-5(2H)-carboxamide], for which the “TRP Activity (EC1.5)” value is “A (EC1.5<1 μM)” and the “TRP MAX RESP (percent maximum fold activation)” value is recorded as “A (Fold activation ≧150%)”.

As to `Cc1cc(-c2ccc3c(n2)N(C(=O)Nc2cn(C)nn2)[C@H]2CCN3C2)ccn1` [Example 138, (4S)-N-(1-methyl-1H-1,2,3-triazol-4-yl)-7-(2-methylpyridin-4-yl)-3,4-dihydro-1,4-methanopyrido[2,3-b][1,4]diazepine-5(2H)-carboxamide], the “TRP Activity (EC1.5)” value is “B (EC1.5 1-25 μM)” and the “TRP MAX RESP (percent maximum fold activation)” value is “A (Fold activation ≧150%)”.

For the compound `CCc1cc(-c2ccc3c(n2)N(C(=O)Nc2cnccn2)[C@H]2CCN3C2)ccn1` [Example 139, (4S)-7-(2-ethylpyridin-4-yl)-N-(pyrazin-2-yl)-3,4-dihydro-1,4-methanopyrido[2,3-b][1,4]diazepine-5(2H)-carboxamide], the “TRP Activity (EC1.5)” value is reported as “A (EC1.5<1 μM)” and the “TRP MAX RESP (percent maximum fold activation)” value is recorded as “A (Fold activation ≧150%)”.

As for `CCOc1cc(-c2ccc3c(n2)N(C(=O)Nc2cnccn2)[C@H]2CCN3C2)ccn1` [Example 140, (4S)-7-(2-ethoxypyridin-4-yl)-N-(pyrazin-2-yl)-3,4-dihydro-1,4-methanopyrido[2,3-b][1,4]diazepine-5(2H)-carboxamide], the “TRP Activity (EC1.5)” value was “B (EC1.5 1-25 μM)” and the “TRP MAX RESP (percent maximum fold activation)” value is on record as “A (Fold activation ≧150%)”.

Consider `COc1cc(-c2ccc3c(n2)N(C(=O)Nc2cnccn2)[C@H]2CCN3C2)ccn1` [Example 141, (4S)-7-(2-methoxypyridin-4-yl)-N-(pyrazin-2-yl)-3,4-dihydro-1,4-methanopyrido[2,3-b][1,4]diazepine-5(2H)-carboxamide], for which the “TRP Activity (EC1.5)” value was “B (EC1.5 1-25 μM)” and the “TRP MAX RESP (percent maximum fold activation)” value is recorded as “A (Fold activation ≧150%)”.

`COc1cc(-c2ccc3c(n2)N(C(=O)Nc2cnccn2)[C@H]2CCN3C2)cc(C)n1` [Example 142, (4S)-7-(2-methoxy-6-methylpyridin-4-yl)-N-(pyrazin-2-yl)-3,4-dihydro-1,4-methanopyrido[2,3-b][1,4]diazepine-5(2H)-carboxamide]: the “TRP Activity (EC1.5)” value is recorded as “B (EC1.5 1-25 μM)” and the “TRP MAX RESP (percent maximum fold activation)” value is listed as “A (Fold activation ≧150%)”.

Regarding `Cc1cc(-c2ccc3c(n2)N(C(=O)Nc2ncn(C)n2)[C@H]2CCN3C2)ccn1` [Example 143, (4S)-N-(1-methyl-1H-1,2,4-triazol-3-yl)-7-(2-methylpyridin-4-yl)-3,4-dihydro-1,4-methanopyrido[2,3-b][1,4]diazepine-5(2H)-carboxamide], the “TRP Activity (EC1.5)” value is given as “B (EC1.5 1-25 μM)” and the “TRP MAX RESP (percent maximum fold activation)” value was “A (Fold activation ≧150%)”.
